# From patent US12410124B2 (priority 2019, dated 2025)
# Like-named read-outs stand apart in the source and are kept apart here.
# Key:
# [1] = test system: substantia nigra GFAP; experiment: Number of substantia nigra astrocytes with GFAP positive expression in MPTP Parkinson's disease model mouse (immunohistochemistry); format: in vivo; conditions: for Positive cell number (astrocytes with GFAP positive expression): substantia nigra, MPTP Parkinson's disease model mouse, immunohistochemistry
# Description: (§1) Neurotoxins can be used to establish PD animal models. Currently, 1-methyl-4-phenyl-1,2,3,6-tetrahydropyridine (MPTP) is the sole synthetic toxin which is recognized to induce PD symptoms in human and non-human primates and in mice. Using MPTP subacute modeling method, C57BL/6J male mice were intraperitoneally injected with MPTP 30 mg/kg, once a day for 5 consecutive days. The experiment animals were divided into blank control group, MPTP model group, and compound treatment group. For the […] compound treatment group, the compound was administrated by gavage for 21 consecutive days after the completion of modeling; for the MPTP model group, the normal saline was administrated by gavage for 21 consecutive days after the completion of modeling; and for the blank control group, the normal saline was first intraperitoneally injected for 5 days, and then administrated by gavage for 21 days.
# Neuron-glial cell network homeostasis disorder is an important factor for the selective and progressive death of substantia nigra dopaminergic neurons in PD. In the neurotoxic effect of MPTP, the excessive activations of microglial cells and astrocytes produce a variety of inflammatory cytokines and reactive oxygen species (ROS). These inflammatory factors and ROS amplify their respective toxicities and mediate malignant feedback loop, causing a cascade inflammation response and aggravating the pathological process of PD. CD11b and GFAP are the marker proteins for activations of microglial cells and astrocytes, respectively. Therefore, the effect of the target compounds on the activations of the microglial cells and astrocytes in the substantia nigra, hippocampus, and midbrain areas of MPTP-induced PD mice can be investigated, to explore the mechanism of the anti-PD effect of the target compounds by inhibiting the neuroinflammation.
# Half of experiment mice in each group were taken to separate the midbrain after perfusion and fixation. The tissue was trimmed, and the substantia nigra area was taken to prepare paraffin sections. The GFAP immunohistochemical staining was performed for the statistics of the change in the number of astrocytes with GFAP positive expression. The experiment included blank control group, MPTP model group, positive control group (caffeic acid phenethyl ester, CAPE), prototype control group (styryl sulfone compounds 3B, 3C, 3D, and 3G, whose structures are shown as above), and target compound group.
# [2] = test system: GCLC; experiment: Midbrain GCLC expression in MPTP Parkinson's disease model mouse (western blot); format: in vivo; conditions: for Expression (GCLC/GAPDH): midbrain, MPTP Parkinson's disease model mouse, western blot
# Description: as §1
# Oxidative stress is an important pathogenic mechanism of PD. Dopaminergic neurons are more sensitive to oxidative stress and are more susceptible to oxidative stress damage. Glutathione (GSH) is an important antioxidant substance in the cell, and glutamate cysteine ligase (GCL) is the rate-limiting enzyme for GSH synthesis, which is composed of catalytic subunit (GCLC) and regulatory subunit (GCLM). The increase of GCLC expression can promote the synthesis of GSH and enhance the ability of tissue cells against oxidative stress. GCL, a phase II enzyme, plays an important protective role by catalyzing the conversion of free radicals into non-toxic products and increasing their water solubility to facilitate the elimination of free radicals, and maintain the redox balance in the body. It plays an important role in the process of protecting cells against oxidative stress damage. The activation of p38 protein phosphorylation has a negative regulatory effect on phase II enzymes. […] Using GCLC as an indicator, the inhibitory effect of the target compounds on MPTP-induced oxidative stress damage in PD mice can be investigated.
# GCLC is expressed in astrocytes, microglial cells, and neurons. The total proteins of the midbrain tissue of mice in each experiment group were extracted, to determine the expression of phase II enzyme GCLC in the midbrain of mice by western blot using GAPDH as the internal reference. The experiment included blank control group, MPTP model group, positive control group (caffeic acid phenethyl ester, CAPE), prototype control group (styryl sulfone compounds 3B, 3C, 3D), and 3G, whose structures are shown as above), and target compound group.
# [3] = molecular target: acetylcholinesterase (AchE) (Homo sapiens, UniProt P22303); experiment: biochemical
# Description: The modified Ellman method was used to determine the inhibitory activity on acetylcholinesterase. The principle lies in that acetylthiocholine iodide is decomposed under the action of acetylcholinesterase (AchE) to generate thiocholine. The thiocholine is quickly reacted with DTNB as the colour-developing agent to generate a yellow substance with light absorption at 405 nm. To a 96-well microplate, 50 μl of enzyme reaction buffer, 125 μl of DTNB (3 mM), 25 μl of test sample or positive control drug, and 25 μl of AchE (0.2 U/ml) were successively added. After incubation at room temperature for 5 min, 25 μl of ATCI (15 mM) was added. After incubation at room temperature for 8 min, the absorbance value was determined at 405 nm with a microplate reader. A blank control group without enzyme (25 μl PBS instead of the sample to be tested) was also established.
# [4] = test system: primary glial cells; experiment: Inhibition of the NO release of primary glial cells induced by LPS; format: cell-based, rat; conditions: for inhibition at 2 µM / inhibition at 5 µM / inhibition at 10 µM / inhibition at 20 µM: Rattus norvegicus, Glial cell, read-out: NO inhibition (%)
# Description: Lipopolysaccharide (LPS) is a main component of the cell wall of Gram-negative bacteria. It is a potent inflammatory factor that can directly activate gliocytes, and the activated gliocytes secrete a large amount of inflammation mediators such as tumor necrosis factor, interleukin, and nitric oxide, thus causing inflammatory reactions and oxidative stress reactions and eventually leading to neuronal denaturation and death. In recent years, the targeted injection of LPS into rat substantia nigra or striatum to induce neuroinflammation can successfully establish PD models, which can simulate most of the clinical manifestations and pathological features of PD, and are used for the study on the neuroinflammation mechanism associated with PD. LPS-induced primary glial cell PD inflammation model is suitable for the preliminary anti-neuroinflammation screening for neuroprotective agents. LPS is used to directly activate primary glial cells to simulate the pathogenesis mechanism of neuroinflammation, and the inhibitory activity of the target compounds on the inflammatory response of primary glial cells can be investigated.
# The materials were taken from the brain tissue of fetal rat, for primary glial cell culture. At 7 to 10 days of the culture, LPS was added for the activation of nitric oxide (NO) release in glial cells. When a target compound was added, the reduction value for NO content in the cell culture medium was measured, to evaluate the anti-neuroinflammation activity of the compound. The experiment included blank control group, LPS model group, positive control group (caffeic acid phenethyl ester, CAPE), prototype control group (styryl sulfone compounds 3B, 3C, 3D, and 3G, the structures of which compounds are shown as above), and target compound group.
# [5] = acetylcholinesterase, modified Ellman method, read-out: IC50
# Chain of acetylcholinesterase (AchE) (P22303 32-614, species assumed): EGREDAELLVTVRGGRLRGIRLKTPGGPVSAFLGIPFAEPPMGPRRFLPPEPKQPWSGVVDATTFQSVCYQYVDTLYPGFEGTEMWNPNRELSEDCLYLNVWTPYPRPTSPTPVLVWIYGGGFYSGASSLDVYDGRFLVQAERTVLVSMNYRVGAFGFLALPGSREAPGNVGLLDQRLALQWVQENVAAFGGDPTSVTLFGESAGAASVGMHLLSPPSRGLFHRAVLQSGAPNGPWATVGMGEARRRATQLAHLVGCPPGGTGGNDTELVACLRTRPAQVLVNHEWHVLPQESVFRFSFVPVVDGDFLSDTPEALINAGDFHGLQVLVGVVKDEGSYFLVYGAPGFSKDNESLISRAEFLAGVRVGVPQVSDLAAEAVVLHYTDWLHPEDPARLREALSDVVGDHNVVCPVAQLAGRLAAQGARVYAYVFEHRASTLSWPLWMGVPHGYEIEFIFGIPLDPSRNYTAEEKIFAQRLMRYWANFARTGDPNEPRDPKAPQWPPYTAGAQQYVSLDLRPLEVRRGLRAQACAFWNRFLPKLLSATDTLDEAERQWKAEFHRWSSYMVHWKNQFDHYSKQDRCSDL
Compound,Positive cell number (astrocytes with GFAP positive expression) [1],Expression (GCLC/GAPDH) [2],IC50 [3] [µM],inhibition at 2 µM [4] [%],inhibition at 5 µM [4] [%],inhibition at 10 µM [4] [%],inhibition at 20 µM [4] [%],"IC50 [3, 5] [µM]",inhibition at 2 µM ([4]; 2 μM) [%],inhibition at 5 µM ([4]; 5 μM) [%],inhibition at 10 µM ([4]; 10 μM) [%],inhibition at 20 µM ([4]; 20 μM) [%],number of substantia nigra astrocytes with GFAP positive expression compared with the styryl sulfone prototype compounds [1],midbrain GCLC expression compared with the styryl sulfone prototype compounds [2],NO inhibitory rate compared with the styryl sulfone prototype compounds [4]
"CCN(C)C(=O)Oc1ccc(/C=C/S(=O)(=O)CC(c2ccc(-c3ccc(OC)c(OC)c3)cc2)[N+](=O)[O-])cc1OC(=O)N(C)CC (centres unmarked) [Compound M1-1, (E)-4-{2-[2-(3′,4′-dimethoxy-[1,1′-biphenyl]-4-yl)-2-nitroethylsulfonyl]ethenyl}-1,2-phenylenebis(N-ethyl-N-methylcarbamate)]",59 ± 3,1.30 ± 0.09,6.6 ± 0.71,38.3 ± 3.42,52.9 ± 5.36,82.7 ± 2.47,–,–,–,–,–,–,–,–,–
"CC(C)N(c1ccc(CCS(=O)(=O)/C=C/c2ccc(OC(=O)N(C)c3ccc(I)cc3)c(OCCOCc3ccccc3)c2)cc1)C(C)C [Compound A1-3, (E)-2-(2-benzyloxyethoxy)-4-{2-[4-(N,N-diisopropylamino)phenylethylsulfonyl]ethenyl}phenyl-N-(4-iodophenyl)-N-methylcarbamate]",105 ± 6,0.84 ± 0.04,25.2 ± 3.34,–,19.6 ± 3.67,43.2 ± 2.36,62.1 ± 4.73,–,–,–,–,–,–,–,–
"COc1ccc(CC(=O)Oc2ccc(C(N)CS(=O)(=O)/C=C/c3ccc(OC(C)(C)C)c(OC(=O)N(C)c4ccccc4)c3)cc2)cc1 (centres unmarked) [Compound P1-3, (E)-4-{1-amino-2-[4-t-butoxy-3-(N-methyl-N-phenylcarbamoyloxy)styrylsulfonyl]ethyl}phenyl-2-(4-methoxyphenyl)acetate]",69 ± 5,0.91 ± 0.11,14.4 ± 2.04,–,25.8 ± 4.25,42 ± 5.34,58.2 ± 3.66,–,–,–,–,–,–,–,–
"O=S(=O)(/C=C/c1ccc(O)c(O)c1)Cc1ccc(Cl)cc1 [Compound 3D, (E)-4-{2-[(4-chlorophenyl)mesyl]ethenyl}benzene-1,2-diol, reference compound]",110 ± 9,0.53 ± 0.04,–,–,–,–,–,> 100,23.5 ± 8.05,34.6 ± 4.89,74.7 ± 3.32,–,–,–,–
"CCOC(CS(=O)(=O)/C=C/c1ccc(OC(C)=O)c(OC(=O)Nc2ccc(NC)cc2)c1)C(OCC)c1ccc(OCc2ccccc2)c(O)c1 (centres unmarked) [Compound H2-4, (E)-4-{2-[3-(4-benzyloxy-3-hydroxyphenyl)-2,3-diethoxypropyl]sulfonylethenyl}-2-[N-(4-methylaminophenyl)carbamoyloxy]phenyl acetate]",93 ± 6,1.21 ± 0.08,–,–,–,–,–,11.3 ± 1.34,32.2 ± 4.49,50.1 ± 5.37,85.4 ± 4.9,–,–,–,–
"COCCN(C)C(=O)Oc1cc(/C=C/S(=O)(=O)CCc2cccc(-c3ccc(C)o3)c2)ccc1OC(C)=O [Compound J1-4, (E)-2-[N-(2-methoxyethyl)-N-methylcarbamoyloxy]-4-{2-[3-(5-methylfur-2-yl)phenylethylsulfonyl]ethenyl}phenyl acetate]",77 ± 4,1.24 ± 0.10,8.54 ± 1.65,24.8 ± 5.02,40.9 ± 3.94,69.7 ± 5.85,–,–,–,–,–,–,–,–,–
"CC(=O)Oc1ccc(/C=C/S(=O)(=O)Cc2c(F)c(F)c(F)c(F)c2F)cc1OC(=O)NC(=O)c1ccc([N+](=O)[O-])c(C)c1 [Compound D5-4, (E)-2-[N-(3-methyl-4-nitrobenzoyl)carbamoyloxy]-4-{2-[(perfluorophenyl)mesyl]ethenyl}phenyl acetate]",97 ± 5,0.97 ± 0.07,–,–,–,–,–,20.8 ± 3.12,24.3 ± 2.82,–,80.7 ± 4.06,–,–,–,–
"Cc1ccc(S(=O)(=O)Oc2ccc(CS(=O)(=O)/C=C/c3ccc(OS(=O)(=O)c4ccc(C)cc4)c(OC(=O)N(C)S(=O)(=O)c4ccc(C)cc4)c3)cc2)cc1 [Compound S6-6, (E)-2-(N-methyl-N-p-tosylcarbamoyloxy)-4-{2-[(4-p-tosyloxyphenyl)mesyl]ethenyl}phenyl p-toluenesulfonate]",78 ± 4,1.29 ± 0.08,15.6 ± 3.07,–,30.2 ± 2.97,59.2 ± 3.49,85.1 ± 4.41,–,–,–,–,–,–,–,–
CN(C)c1ccc(CC(=O)Oc2cc(/C=C/S(=O)(=O)C(Br)c3ccc(Cc4ccc(N(C)C)cc4)cc3)ccc2OC(=O)N2CCCC2C(F)(F)F)cc1 (centres unmarked) [Compound M1-5],81 ± 4,1.35 ± 0.08,–,–,–,–,–,31.3 ± 4.63,–,21.2 ± 3.12,45.6 ± 4.28,66.7 ± 4.02,–,–,–
"CCN(CC)C(=O)Oc1ccc(/C=C/S(=O)(=O)Cc2ccc(C(C)(C)C)cc2)cc1OC(=O)N(CC)CC [Compound G1-1, (E)-4-{2-[(4-t-butylphenyl)mesyl]ethenyl}-1,2-phenylenebis(diethylcarbamate)]",76 ± 4,1.05 ± 0.04,–,–,–,–,–,10.8 ± 2.13,27.2 ± 3.98,64.2 ± 3.25,85.8 ± 5.01,–,significantly lower,significantly higher,equivalent or higher inhibitory rate
"O=C(NC(=O)C(F)(F)F)Oc1ccc(/C=C/S(=O)(=O)C(F)(F)c2ccc(Oc3ccccn3)cc2)cc1OC(=O)C(F)(F)C(F)(F)F [Compound L1-4, (E)-5-{2-[(4-[pyridin-2-yl-oxy]phenyl)difluoromethylsulfonyl]ethenyl}-2-[N-(2,2,2-trifluoroacetyl)carbamoyloxy]phenyl-2,2,3,3,3-pentafluoropropionate]",98 ± 4,0.96 ± 0.10,–,–,–,–,–,9.48 ± 1.34,26.7 ± 6.93,50.9 ± 3.72,72.3 ± 4.8,–,–,–,–
